According to the NIST ThermoML archive (doi:10.1021/acs.jced.6b00026):

Assay: xn = mol fraction of the nth substance listed
Settings: Fluid (supercritical or subcritical phases), Buoyancy - hydrostatic balance with magnetic suspension - one sinker

CCCCCCCCCCC [undecane] + O=C=O
Settings | mass density [kg/m3]
313.18 K, 8001 kPa, x2 = 0.6797 | 776.08
313.18 K, 13999 kPa, x2 = 0.2483 | 745.92
313.18 K, 16002 kPa, x2 = 0.6797 | 808.24
313.18 K, 18070 kPa, x2 = 0.8874 | 825.37
313.18 K, 18977 kPa, x2 = 0.2483 | 749.97
313.19 K, 16008 kPa, x2 = 0.2483 | 747.58
313.19 K, 19014 kPa, x2 = 0.6797 | 817.41
313.2 K, 10002 kPa, x2 = 0.6797 | 785.54
313.2 K, 12013 kPa, x2 = 0.2483 | 744.22
313.21 K, 8004 kPa, x2 = 0.2483 | 740.68
313.21 K, 10007 kPa, x2 = 0.2483 | 742.45
313.21 K, 12003 kPa, x2 = 0.6797 | 793.85
313.21 K, 13997 kPa, x2 = 0.6797 | 801.3
313.21 K, 18002 kPa, x2 = 0.2483 | 749.16
313.22 K, 19000 kPa, x2 = 0.4641 | 772.52
313.23 K, 16004 kPa, x2 = 0.4641 | 769.05
313.23 K, 17996 kPa, x2 = 0.4641 | 771.37
313.24 K, 10003 kPa, x2 = 0.4641 | 761.59
313.24 K, 12000 kPa, x2 = 0.4641 | 764.15
313.24 K, 18003 kPa, x2 = 0.6797 | 814.33
313.25 K, 7997 kPa, x2 = 0.4641 | 758.91
313.26 K, 10039 kPa, x2 = 0.8874 | 773.99
313.26 K, 11990 kPa, x2 = 0.8874 | 789.91
313.26 K, 14074 kPa, x2 = 0.8874 | 803.72
313.27 K, 16066 kPa, x2 = 0.8874 | 815
313.27 K, 19015 kPa, x2 = 0.8874 | 829.45
313.29 K, 14002 kPa, x2 = 0.4641 | 766.59
323.11 K, 18008 kPa, x2 = 0.6797 | 792.77
323.14 K, 11997 kPa, x2 = 0.2483 | 736.47
323.15 K, 16006 kPa, x2 = 0.4641 | 758.48
323.17 K, 7997 kPa, x2 = 0.4641 | 747.66
323.17 K, 14005 kPa, x2 = 0.4641 | 755.92
323.17 K, 19002 kPa, x2 = 0.6797 | 795.98
323.19 K, 9992 kPa, x2 = 0.6797 | 757.97
323.2 K, 9999 kPa, x2 = 0.2483 | 734.59
323.2 K, 11998 kPa, x2 = 0.6797 | 768.5
323.2 K, 16011 kPa, x2 = 0.2483 | 739.99
323.2 K, 18000 kPa, x2 = 0.2483 | 741.72
323.23 K, 14011 kPa, x2 = 0.2483 | 738.22
323.23 K, 19001 kPa, x2 = 0.2483 | 742.54
323.25 K, 16042 kPa, x2 = 0.6797 | 785.42
323.25 K, 19040 kPa, x2 = 0.8874 | 798.97
323.26 K, 10008 kPa, x2 = 0.4641 | 750.42
323.26 K, 12004 kPa, x2 = 0.4641 | 753.18
323.26 K, 19006 kPa, x2 = 0.4641 | 762.09
323.27 K, 8000 kPa, x2 = 0.2483 | 732.65
323.27 K, 18003 kPa, x2 = 0.4641 | 760.86
323.3 K, 14004 kPa, x2 = 0.6797 | 777.17
323.31 K, 13971 kPa, x2 = 0.8874 | 764.29
323.31 K, 18051 kPa, x2 = 0.8874 | 793.06
323.32 K, 11984 kPa, x2 = 0.8874 | 745.06
323.32 K, 16015 kPa, x2 = 0.8874 | 779.89
333.05 K, 15991 kPa, x2 = 0.2483 | 732.43
333.06 K, 8008 kPa, x2 = 0.2483 | 724.69
333.06 K, 18013 kPa, x2 = 0.2483 | 734.27
333.07 K, 18027 kPa, x2 = 0.6797 | 770.02
333.07 K, 19007 kPa, x2 = 0.2483 | 735.15
333.09 K, 18042 kPa, x2 = 0.8874 | 758.98
333.11 K, 12010 kPa, x2 = 0.8874 | 701.45
333.14 K, 10000 kPa, x2 = 0.2483 | 726.64
333.14 K, 11987 kPa, x2 = 0.6797 | 745.9
333.14 K, 18003 kPa, x2 = 0.4641 | 751.23
333.14 K, 19000 kPa, x2 = 0.6797 | 773.23
333.16 K, 10004 kPa, x2 = 0.4641 | 739.87
333.16 K, 11998 kPa, x2 = 0.4641 | 742.85
333.16 K, 12018 kPa, x2 = 0.2483 | 728.6
333.16 K, 16006 kPa, x2 = 0.4641 | 748.54
333.16 K, 19039 kPa, x2 = 0.8874 | 765.91
333.17 K, 8004 kPa, x2 = 0.4641 | 736.7
333.17 K, 13998 kPa, x2 = 0.6797 | 754.83
333.17 K, 14005 kPa, x2 = 0.8874 | 721.01
333.17 K, 14013 kPa, x2 = 0.2483 | 730.5
333.19 K, 13997 kPa, x2 = 0.4641 | 745.71
